Data published in ChEMBL document CHEMBL3885861, “Open TG-GATES”.

Species: Rattus norvegicus
Assay: Open TG-GATES - Regimen: Daily Repeat
Format: toxicity, organism-based, Sprague-Dawley
Parameters: regimen Daily Repeat, gender Male, age 6 weeks
Details: in vivo, po, 0 mg/kg, route gavage, dose level Control; for APTT / Bas / Eos / Fbg / Hb / Ht / Lym / MCH / MCHC / MCV / Mono / Neu / PT / Plat / RBC / Ret / WBC: tissue Blood; for KIDNEY_L / KIDNEY_R / KIDNEY_TOTAL: tissue Kidney; for LIVER: tissue Liver; for A/G / ALP / ALT / AST / BUN / CRE / Ca / Cl / DBIL / GLC / IP / K / LDH / Na / PL / RALB / TBIL / TC / TG / TP / gamma-GTP: tissue Plasma

## CC(=O)Oc1cc(C(C)C)c(OCCN(C)C)cc1C [MOXISYLYTE]
72 h, time 3 day
  TERMINAL_BW: 216.7 g
  APTT: 21.2 s
  Bas: 0%
  Eos: 1%
  Fbg: 327.4 mg/dL
  Hb: 13.7 g/dL
  Ht: 39.2%
  Lym: 81.2%
  MCH: 20.9 pg
  MCHC: 34.9%
  MCV: 59.9 fL
  Mono: 2.4%
  Neu: 14.2%
  PT: 16.5 s
  Plat: 116.4 x10_4/uL
  RBC: 655.4 x10_4/ul
  Ret: 6.2%
  WBC: 102.1 x10_2/uL
  KIDNEY_L: 0.9 g
  KIDNEY_R: 1 g
  KIDNEY_TOTAL: 1.9 g
  LIVER: 10.3 g
  A/G: 1.2
  ALP: 1472.6 IU/L
  ALT: 42.8 IU/L
  AST: 70.4 IU/L
  BUN: 17.2 mg/dL
  CRE: 0.2 mg/dL
  Ca: 10.8 mg/dL
  Cl: 106.6 meq/L
  DBIL: 0.004 mg/dL
  GLC: 181.4 mg/dL
  IP: 7 mg/dL
  K: 4.2 meq/L
  LDH: 202.6 IU/L
  Na: 142.4 meq/L
  PL: 154.2 mg/dL
  RALB: 3.1 g/dL
  TBIL: 0.014 mg/dL
  TC: 75.8 mg/dL
  TG: 97 mg/dL
  TP: 5.7 g/dL
  gamma-GTP: 1 IU/L
[…], time 7 day
  TERMINAL_BW: 251.3 g
  APTT: 22.9 s
  Bas: 0%
  Eos: 0.6%
  Fbg: 294.6 mg/dL
  Hb: 13.6 g/dL
  Ht: 39%
  Lym: 81.4%
  MCH: 20.7 pg
  MCHC: 34.8%
  MCV: 59.5 fL
  Mono: 2%
  Neu: 15%
  PT: 15.6 s
  Plat: 119.6 x10_4/uL
  RBC: 656.8 x10_4/ul
  Ret: 5.1%
  WBC: 75.9 x10_2/uL
  KIDNEY_L: 1.1 g
  KIDNEY_R: 1.1 g
  KIDNEY_TOTAL: 2.1 g
  LIVER: 11.2 g
  A/G: 1.3
  ALP: 1660 IU/L
  ALT: 40.4 IU/L
  AST: 71.2 IU/L
  BUN: 18 mg/dL
  CRE: 0.2 mg/dL
  Ca: 10.7 mg/dL
  Cl: 106.6 meq/L
  DBIL: 0 mg/dL
  GLC: 189.2 mg/dL
  IP: 6.7 mg/dL
  K: 4.1 meq/L
  LDH: 219.2 IU/L
  Na: 142.6 meq/L
  PL: 155.2 mg/dL
  RALB: 3 g/dL
  TBIL: 0.004 mg/dL
  TC: 72.2 mg/dL
  TG: 138 mg/dL
  TP: 5.4 g/dL
  gamma-GTP: 1.4 IU/L
[…], time 14 day
  TERMINAL_BW: 305.9 g
  APTT: 22.6 s
  Bas: 0%
  Eos: 1%
  Fbg: 308.2 mg/dL
  Hb: 15.1 g/dL
  Ht: 41.2%
  Lym: 79.4%
  MCH: 21.6 pg
  MCHC: 36.6%
  MCV: 59 fL
  Mono: 2%
  Neu: 16.4%
  PT: 16.1 s
  Plat: 118 x10_4/uL
  RBC: 699.2 x10_4/ul
  Ret: 5%
  WBC: 125 x10_2/uL
  KIDNEY_L: 1.2 g
  KIDNEY_R: 1.3 g
  KIDNEY_TOTAL: 2.5 g
  LIVER: 13.3 g
  A/G: 1.1
  ALP: 1709.2 IU/L
  ALT: 40 IU/L
  AST: 71.4 IU/L
  BUN: 20 mg/dL
  CRE: 0.2 mg/dL
  Ca: 10.7 mg/dL
  Cl: 106.2 meq/L
  DBIL: 0 mg/dL
  GLC: 197.6 mg/dL
  IP: 6 mg/dL
  K: 4.2 meq/L
  LDH: 170.8 IU/L
  Na: 141.4 meq/L
  PL: 148.4 mg/dL
  RALB: 3.1 g/dL
  TBIL: 0.008 mg/dL
  TC: 75.4 mg/dL
  TG: 114.6 mg/dL
  TP: 5.7 g/dL
  gamma-GTP: 1.4 IU/L
[…], time 28 day
  TERMINAL_BW: 397.2 g
  APTT: 24 s
  Bas: 0%
  Eos: 1%
  Fbg: 320.8 mg/dL
  Hb: 14.4 g/dL
  Ht: 40.5%
  Lym: 82.2%
  MCH: 19.4 pg
  MCHC: 35.5%
  MCV: 54.7 fL
  Mono: 1.8%
  Neu: 13.5%
  PT: 15.9 s
  Plat: 100.5 x10_4/uL
  RBC: 741 x10_4/ul
  Ret: 3.1%
  WBC: 119.2 x10_2/uL
  KIDNEY_L: 1.5 g
  KIDNEY_R: 1.5 g
  KIDNEY_TOTAL: 3 g
  LIVER: 16.3 g
  A/G: 1.1
  ALP: 1031.5 IU/L
  ALT: 47.5 IU/L
  AST: 81.5 IU/L
  BUN: 17.5 mg/dL
  CRE: 0.2 mg/dL
  Ca: 10.3 mg/dL
  Cl: 104.5 meq/L
  DBIL: 0.0025 mg/dL
  GLC: 201.5 mg/dL
  IP: 6.9 mg/dL
  K: 4.1 meq/L
  LDH: 261 IU/L
  Na: 141 meq/L
  PL: 134.2 mg/dL
  RALB: 3 g/dL
  TBIL: 0.0025 mg/dL
  TC: 64.5 mg/dL
  TG: 116.5 mg/dL
  TP: 5.9 g/dL
  gamma-GTP: 1.5 IU/L
